Assay results from ChEMBL document CHEMBL4818999, “Pyrido[2, 3-d]pyrimidin-7(8H)-ones as new selective orally bioavailable Threonine Tyrosine Kinase (TTK) inhibitors” (Eur J Med Chem, 2021).

How the values were obtained:
HCT-116 [1] = assay: Induction of apoptosis in human HCT-116 cells assessed as late apoptotic cells at 111.1 nM incubated for 48 hrs by annexin V and 7-AAD staining based flow cytometry analysis (reference value: 8.59 %); format: functional
HCT-116 [2] = assay: Induction of apoptosis in human HCT-116 cells assessed as necrotic cells at 111.1 nM incubated for 48 hrs by annexin V and 7-AAD staining based flow cytometry analysis (reference value: 1.20 %); format: functional
[3] = molecular target: T1, Interleukin-1 receptor-associated kinase 1 (Homo sapiens, UniProt P51617); assay: Binding affinity to wild-type human partial length IRAK1 (R194 to S712 residues) expressed in mammalian expression system by active site-directed competition binding based Kinomescan method
Target sequence in this assay (P51617 whole entry, the tested form may be a part): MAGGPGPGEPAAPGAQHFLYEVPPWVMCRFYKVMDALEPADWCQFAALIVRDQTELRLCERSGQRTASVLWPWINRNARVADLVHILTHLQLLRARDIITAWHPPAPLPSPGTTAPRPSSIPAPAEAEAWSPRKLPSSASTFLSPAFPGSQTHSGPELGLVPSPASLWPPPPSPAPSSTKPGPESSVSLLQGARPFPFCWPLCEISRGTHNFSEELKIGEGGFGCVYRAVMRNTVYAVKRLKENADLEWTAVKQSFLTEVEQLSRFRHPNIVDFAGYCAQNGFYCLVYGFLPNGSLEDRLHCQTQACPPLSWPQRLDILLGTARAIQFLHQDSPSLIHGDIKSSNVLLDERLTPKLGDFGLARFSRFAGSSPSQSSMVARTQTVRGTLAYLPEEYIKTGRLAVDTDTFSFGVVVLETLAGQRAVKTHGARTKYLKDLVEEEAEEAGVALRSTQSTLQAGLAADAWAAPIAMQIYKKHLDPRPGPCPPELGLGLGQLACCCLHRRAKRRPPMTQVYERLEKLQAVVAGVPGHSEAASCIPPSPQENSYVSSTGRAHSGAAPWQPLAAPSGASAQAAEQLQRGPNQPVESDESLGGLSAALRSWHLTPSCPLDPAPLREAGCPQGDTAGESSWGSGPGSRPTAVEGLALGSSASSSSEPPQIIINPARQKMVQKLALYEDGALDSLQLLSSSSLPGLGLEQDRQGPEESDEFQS

[4] = molecular target: NUAK family SNF1-like kinase 2 (Homo sapiens) (UniProt Q9H093); details: dose 100.0 nM
HCT-116 [5] = assay: Induction of apoptosis in human HCT-116 cells assessed as viable cells at 111.1 nM incubated for 48 hrs by annexin V and 7-AAD staining based flow cytometry analysis (reference value: 82.09 %); format: functional; details: read-out: Activity
[6] = Cmax in Sprague-Dawley rat at 25 mg/kg, po; format: ADME, organism-based; parameters: route oral, dose 25 mg/kg; details: in vivo
[7] = molecular target: Serine/threonine-protein kinase DCLK1 (Homo sapiens) (UniProt O15075); details: dose 100.0 nM
Description: Inhibition of human DCAMKL1 at 100 nM by direct-filter Binding radiometric assay relative to control

[8] = molecular target: Mitogen-activated protein kinase 8 (Homo sapiens) (UniProt P45983); details: dose 100.0 nM
Description: Inhibition of human full length JNK-1 using ATF2 as substrate at 100 nM direct filter-binding radiometric kinase activity assay relative to control

[9] = molecular target: Serine/threonine-protein kinase 16 (Homo sapiens) (UniProt O75716); details: dose 100.0 nM
Description: Inhibition of human STK16 at 100 nM by direct-filter Binding radiometric assay relative to control

HCT-116 [10] = assay: Induction of apoptosis in human HCT-116 cells assessed as […] cells at 1000 nM incubated for 48 hrs by annexin V and 7-AAD staining based flow cytometry analysis (reference value: 1.20 %); format: functional
[11] = AUC (0 to infinity) in Sprague-Dawley rat at 25 mg/kg, po; format: ADME, organism-based; parameters: time infinity, route oral, dose 25 mg/kg; details: in vivo
[12] = molecular target: MAP/microtubule affinity-regulating kinase 3 (Homo sapiens, UniProt P27448); assay: Binding affinity to wild-type human full length MARK3 (M1 to L729 residues) expressed in bacterial expression system by measuring active site-directed competition binding based Kinomescan method
[13] = molecular target: Myotonin-protein kinase (Homo sapiens) (UniProt Q09013); details: dose 100.0 nM
Description: Inhibition of human recombinant DMPK (1 to 549) using Axltide at 100 nM direct filter-binding radiometric kinase activity assay relative to control

[14] = molecular target: T2, Dual specificity protein kinase TTK (Homo sapiens, UniProt P33981); assay: Binding affinity to wild-type human partial length TTK (N505 to V798 residues) expressed in bacterial expression system by active site-directed competition binding based Kinomescan method
T2 sequence (P33981 whole entry): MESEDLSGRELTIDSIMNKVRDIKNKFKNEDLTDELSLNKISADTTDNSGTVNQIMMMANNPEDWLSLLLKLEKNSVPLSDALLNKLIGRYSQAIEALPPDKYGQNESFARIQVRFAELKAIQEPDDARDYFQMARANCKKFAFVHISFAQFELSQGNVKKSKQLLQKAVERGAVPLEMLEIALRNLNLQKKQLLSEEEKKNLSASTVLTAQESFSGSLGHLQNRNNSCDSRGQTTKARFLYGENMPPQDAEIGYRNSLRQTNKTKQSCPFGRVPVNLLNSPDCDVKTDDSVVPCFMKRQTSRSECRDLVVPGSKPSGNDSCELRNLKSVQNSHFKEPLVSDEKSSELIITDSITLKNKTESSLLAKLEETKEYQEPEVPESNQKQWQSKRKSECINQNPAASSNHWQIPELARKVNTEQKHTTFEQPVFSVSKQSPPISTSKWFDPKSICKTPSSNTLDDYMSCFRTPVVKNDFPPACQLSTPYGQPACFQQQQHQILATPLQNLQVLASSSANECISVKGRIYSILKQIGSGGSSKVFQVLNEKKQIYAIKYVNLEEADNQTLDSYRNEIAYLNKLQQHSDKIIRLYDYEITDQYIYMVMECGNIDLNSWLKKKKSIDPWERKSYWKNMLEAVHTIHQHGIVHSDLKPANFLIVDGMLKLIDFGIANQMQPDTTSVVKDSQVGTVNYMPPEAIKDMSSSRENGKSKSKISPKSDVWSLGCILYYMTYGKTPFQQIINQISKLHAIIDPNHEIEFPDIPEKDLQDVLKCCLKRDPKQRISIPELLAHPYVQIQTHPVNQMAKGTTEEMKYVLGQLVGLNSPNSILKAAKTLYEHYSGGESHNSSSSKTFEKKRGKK

[15] = Oral bioavailability in Sprague-Dawley rat at 25 mg/kg; format: ADME, organism-based; details: in vivo
[16] = molecular target: Serine/threonine-protein kinase ULK2 (Homo sapiens) (UniProt Q8IYT8); details: dose 100.0 nM
Description: Inhibition of human recombinant ULK2 (1 to 306) using casein at 100 nM direct filter-binding radiometric kinase activity assay relative to control

[17] = molecular target: Dual specificity protein kinase TTK (Homo sapiens) (UniProt P33981); details: dose 100.0 nM, time 40.0 min
[18] = molecular target: Mitogen-activated protein kinase 10 (Homo sapiens) (UniProt P53779); details: dose 100.0 nM
Description: Inhibition of human full length JNK3 at 100 nM by direct-filter Binding radiometric assay relative to control

[19] = AUC (0 to infinity) in Sprague-Dawley rat at 5 mg/kg, iv; format: ADME, organism-based; parameters: route intravenous, time infinity, dose 5 mg/kg; details: in vivo
[20] = Toxicity in CB17-SCID mouse xenografted with human HCT-116 cells xenografted assessed as body weight loss at 50 mg/kg, po administered once daily relative to control; format: organism-based; details: in vivo
[21] = Half life in Sprague-Dawley rat at 5 mg/kg, iv; format: ADME, organism-based; details: in vivo
HCT-116 [22] = assay: Induction of apoptosis in human HCT-116 cells assessed as viable cells at 333.3 nM incubated for 48 hrs by annexin V and 7-AAD staining based flow cytometry analysis (reference value: 82.09 %); format: functional; details: read-out: Activity
[23] = molecular target: Serine/threonine-protein kinase ULK1 (Homo sapiens) (UniProt O75385); details: dose 100.0 nM
Description: Inhibition of human recombinat ULK1 (1 to 314) using casein as substrate at 100 nM direct filter-binding radiometric kinase activity assay relative to control

[24] = Cmax in Sprague-Dawley rat at 5 mg/kg, iv; format: ADME, organism-based; parameters: route intravenous, dose 5 mg/kg; details: in vivo
[25] = molecular target: Phosphatidylinositol 4,5-bisphosphate 3-kinase catalytic subunit delta isoform (Homo sapiens) (UniProt O00329); details: dose 100.0 nM
Description: Inhibition of human PIK3CD at 100 nM by scintillation counting based direct-filter Binding radiometric assay relative to control

HCT-116 [26] = assay: Antiproliferative activity against human HCT-116 cells assessed as growth inhibition after 96 hrs by CCK8 assay; format: functional, cell-based; details: HCT-116, 96 h
[27] = molecular target: STE20/SPS1-related proline-alanine-rich protein kinase (Homo sapiens) (UniProt Q9UEW8); details: dose 100.0 nM
Description: Inhibition of human STK39 at 100 nM by direct-filter Binding radiometric assay relative t

[28] = molecular target: T1, Interleukin-1 receptor-associated kinase 1; details: dose 100.0 nM
Target sequence in this assay (P51617 whole entry, looked up, the tested form may be a part): as the sequence (P51617 whole entry, the tested form may be a part) above
Description: Inhibition of human recombinant IRAK1 (198 to end) using myelin ba as substrate at 100 nM direct filter-binding radiometric kinase activity assay relative to control

HCT-116 [29] = assay: Induction of apoptosis in human HCT-116 cells assessed as late apoptotic cells at 1000 nM incubated for 48 hrs by annexin V and 7-AAD staining based flow cytometry analysis (reference value: 8.59 %); format: functional
HCT-116 [30] = assay: Induction of apoptosis in human HCT-116 cells assessed as early apoptotic cells at 333.3 nM incubated for 48 hrs by annexin V and 7-AAD staining based flow cytometry analysis (reference value: 8.12 %); format: functional

Chain of Phosphatidylinositol 4,5-bisphosphate 3-kinase catalytic subunit delta isoform (Homo sapiens) (O00329 whole entry, canonical isoform): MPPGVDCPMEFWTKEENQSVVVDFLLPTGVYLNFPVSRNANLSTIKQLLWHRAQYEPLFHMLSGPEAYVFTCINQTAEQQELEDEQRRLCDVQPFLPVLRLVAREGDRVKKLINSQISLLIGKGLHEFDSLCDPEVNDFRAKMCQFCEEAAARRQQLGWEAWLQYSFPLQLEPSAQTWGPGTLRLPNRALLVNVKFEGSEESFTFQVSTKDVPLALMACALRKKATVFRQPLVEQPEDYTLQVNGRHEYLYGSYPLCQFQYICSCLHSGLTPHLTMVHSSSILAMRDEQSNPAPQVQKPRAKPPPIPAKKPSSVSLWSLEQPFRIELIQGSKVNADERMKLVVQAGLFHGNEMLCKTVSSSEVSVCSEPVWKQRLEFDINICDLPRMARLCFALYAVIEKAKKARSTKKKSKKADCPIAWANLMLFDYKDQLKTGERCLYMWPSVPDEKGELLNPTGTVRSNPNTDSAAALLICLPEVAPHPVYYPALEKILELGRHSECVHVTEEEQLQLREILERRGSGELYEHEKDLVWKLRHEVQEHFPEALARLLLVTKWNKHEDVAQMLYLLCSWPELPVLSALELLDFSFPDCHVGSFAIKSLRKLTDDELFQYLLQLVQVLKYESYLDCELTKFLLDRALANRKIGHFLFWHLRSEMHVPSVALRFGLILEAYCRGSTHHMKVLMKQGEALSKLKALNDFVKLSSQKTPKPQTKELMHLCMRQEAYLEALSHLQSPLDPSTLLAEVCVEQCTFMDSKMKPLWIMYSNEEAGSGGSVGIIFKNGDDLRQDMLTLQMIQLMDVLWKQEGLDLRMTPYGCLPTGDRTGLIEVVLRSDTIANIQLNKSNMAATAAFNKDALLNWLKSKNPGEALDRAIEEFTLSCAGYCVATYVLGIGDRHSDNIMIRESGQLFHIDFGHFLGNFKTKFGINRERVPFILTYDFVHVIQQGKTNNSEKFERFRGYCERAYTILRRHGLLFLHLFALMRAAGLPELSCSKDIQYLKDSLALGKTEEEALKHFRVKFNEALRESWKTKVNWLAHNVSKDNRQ
Chain of Mitogen-activated protein kinase 8 (Homo sapiens) (P45983 whole entry): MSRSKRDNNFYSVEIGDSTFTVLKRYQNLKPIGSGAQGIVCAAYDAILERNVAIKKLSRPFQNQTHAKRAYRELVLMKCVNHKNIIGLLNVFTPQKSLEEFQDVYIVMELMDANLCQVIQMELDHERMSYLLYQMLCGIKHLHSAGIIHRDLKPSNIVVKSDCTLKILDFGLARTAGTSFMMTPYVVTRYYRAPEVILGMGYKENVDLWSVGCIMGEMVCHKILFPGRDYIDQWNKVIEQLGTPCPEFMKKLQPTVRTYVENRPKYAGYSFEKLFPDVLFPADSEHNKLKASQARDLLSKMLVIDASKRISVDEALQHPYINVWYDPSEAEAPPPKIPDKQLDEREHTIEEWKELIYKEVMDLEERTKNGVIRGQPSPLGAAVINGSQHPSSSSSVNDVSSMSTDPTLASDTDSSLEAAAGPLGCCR
Chain of MAP/microtubule affinity-regulating kinase 3 (P27448 whole entry, the tested form may be a part): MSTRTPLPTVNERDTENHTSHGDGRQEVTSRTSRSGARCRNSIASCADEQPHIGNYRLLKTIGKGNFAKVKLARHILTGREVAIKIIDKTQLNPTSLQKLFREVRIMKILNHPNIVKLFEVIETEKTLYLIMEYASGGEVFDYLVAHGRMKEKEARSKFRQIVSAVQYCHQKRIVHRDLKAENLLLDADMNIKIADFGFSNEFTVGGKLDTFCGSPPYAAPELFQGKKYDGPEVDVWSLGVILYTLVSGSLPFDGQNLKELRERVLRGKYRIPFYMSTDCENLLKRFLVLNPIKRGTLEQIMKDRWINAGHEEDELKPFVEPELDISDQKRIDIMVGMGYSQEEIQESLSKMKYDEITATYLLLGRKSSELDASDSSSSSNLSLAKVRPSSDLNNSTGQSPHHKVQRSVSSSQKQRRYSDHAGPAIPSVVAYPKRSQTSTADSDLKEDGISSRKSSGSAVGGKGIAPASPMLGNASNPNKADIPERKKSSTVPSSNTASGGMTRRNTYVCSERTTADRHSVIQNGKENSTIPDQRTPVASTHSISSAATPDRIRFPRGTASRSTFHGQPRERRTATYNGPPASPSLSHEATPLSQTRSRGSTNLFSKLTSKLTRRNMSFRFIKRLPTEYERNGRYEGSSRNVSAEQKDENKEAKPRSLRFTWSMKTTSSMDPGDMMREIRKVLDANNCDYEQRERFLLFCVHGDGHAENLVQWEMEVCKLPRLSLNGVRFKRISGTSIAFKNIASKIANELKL
Chain of Serine/threonine-protein kinase ULK2 (Homo sapiens) (Q8IYT8 whole entry): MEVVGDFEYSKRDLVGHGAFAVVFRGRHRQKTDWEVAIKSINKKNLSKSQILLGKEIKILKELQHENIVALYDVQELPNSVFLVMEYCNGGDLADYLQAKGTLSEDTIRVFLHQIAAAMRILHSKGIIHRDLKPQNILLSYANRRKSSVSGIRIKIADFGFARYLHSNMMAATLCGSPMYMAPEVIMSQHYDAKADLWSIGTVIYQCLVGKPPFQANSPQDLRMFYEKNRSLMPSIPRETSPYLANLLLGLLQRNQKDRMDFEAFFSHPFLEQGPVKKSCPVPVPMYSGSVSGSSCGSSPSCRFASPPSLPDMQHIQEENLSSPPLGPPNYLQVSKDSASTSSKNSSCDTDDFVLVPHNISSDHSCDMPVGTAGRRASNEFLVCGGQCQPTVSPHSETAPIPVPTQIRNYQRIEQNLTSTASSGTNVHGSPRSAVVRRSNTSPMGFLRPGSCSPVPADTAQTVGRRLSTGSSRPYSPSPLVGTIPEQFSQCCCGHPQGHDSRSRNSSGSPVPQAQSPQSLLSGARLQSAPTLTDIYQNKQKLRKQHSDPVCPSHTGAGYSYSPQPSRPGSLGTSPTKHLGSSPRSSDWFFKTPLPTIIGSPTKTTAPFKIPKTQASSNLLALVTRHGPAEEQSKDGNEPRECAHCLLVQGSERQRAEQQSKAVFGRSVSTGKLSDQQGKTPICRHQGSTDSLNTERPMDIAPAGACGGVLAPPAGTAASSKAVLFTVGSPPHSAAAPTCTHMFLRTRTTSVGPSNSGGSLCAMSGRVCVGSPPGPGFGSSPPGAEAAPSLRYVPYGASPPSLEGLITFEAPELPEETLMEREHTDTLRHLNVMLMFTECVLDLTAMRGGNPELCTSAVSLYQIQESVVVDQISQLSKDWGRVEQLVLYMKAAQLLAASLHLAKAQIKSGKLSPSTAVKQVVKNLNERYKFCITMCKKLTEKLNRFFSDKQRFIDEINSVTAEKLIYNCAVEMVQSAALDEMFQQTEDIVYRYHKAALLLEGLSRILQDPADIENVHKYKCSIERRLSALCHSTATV
Chain of Mitogen-activated protein kinase 10 (Homo sapiens) (P53779 whole entry): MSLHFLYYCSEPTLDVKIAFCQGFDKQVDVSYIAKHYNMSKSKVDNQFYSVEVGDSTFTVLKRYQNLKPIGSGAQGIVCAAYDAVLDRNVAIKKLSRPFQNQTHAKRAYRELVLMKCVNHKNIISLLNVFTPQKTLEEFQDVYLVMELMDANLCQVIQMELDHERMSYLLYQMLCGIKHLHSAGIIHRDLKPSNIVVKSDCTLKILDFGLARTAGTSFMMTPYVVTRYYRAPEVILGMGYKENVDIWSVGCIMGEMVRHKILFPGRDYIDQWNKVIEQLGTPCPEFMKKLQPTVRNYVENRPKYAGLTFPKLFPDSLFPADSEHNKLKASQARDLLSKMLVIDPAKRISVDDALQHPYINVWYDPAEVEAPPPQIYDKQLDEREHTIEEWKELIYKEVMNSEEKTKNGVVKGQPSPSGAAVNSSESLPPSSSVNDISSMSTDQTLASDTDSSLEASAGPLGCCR
Chain of Serine/threonine-protein kinase 16 (Homo sapiens) (O75716 whole entry): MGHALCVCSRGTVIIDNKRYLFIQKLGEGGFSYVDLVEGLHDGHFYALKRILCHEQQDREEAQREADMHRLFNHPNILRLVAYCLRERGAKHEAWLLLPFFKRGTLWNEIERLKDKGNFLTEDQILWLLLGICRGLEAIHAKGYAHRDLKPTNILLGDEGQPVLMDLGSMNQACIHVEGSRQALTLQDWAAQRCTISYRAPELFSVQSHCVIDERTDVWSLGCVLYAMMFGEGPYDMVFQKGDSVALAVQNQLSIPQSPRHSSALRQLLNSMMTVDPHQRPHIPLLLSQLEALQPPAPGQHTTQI

COc1cc(N2CCN(C)CC2)ccc1Nc1ncc2c(C)cc(=O)n([C@H]3CC[C@@H](NC(=O)C4CCCCC4)CC3)c2n1
Activity (HCT-116 [1]): 5.3% | Activity (HCT-116 [2]): 0.75% | Kd [3]: > 1000 nM | inhibition [4]: 84% | viability at 0.1111 µM (HCT-116 [5]): 89.5% | Cmax [6]: 1230 ng/mL | inhibition [7]: 80% | inhibition [8]: 75% | inhibition [9]: 87% | Activity (HCT-116 [10]): 3.44% | AUC(0-inf) [11]: 13000 ng·h/mL | Kd [12]: 11 nM | inhibition [13]: 81% | Kd [14]: 0.15 nM | bioavailability [15]: 45.2% | inhibition [16]: 85% | inhibition [17]: 98.1% | inhibition [18]: 87% | AUC(0-inf) [19]: 5310 ng·h/mL | Activity [20]: < 15% | half-life [21]: 3.58 h | viability at 0.3333 µM (HCT-116 [22]): 70.7% | inhibition [23]: 68% | Cmax [24]: 2530 ng/mL | inhibition [25]: 100% | IC50 (HCT-116 [26]): 410 nM | inhibition [27]: 75% | inhibition [28]: 91.8% | Activity (HCT-116 [29]): 21.18% | Activity (HCT-116 [30]): 13.5%
